Measurements as given in PMC6704710, “Preclinical evaluation of 3D185, a novel potent inhibitor of FGFR1/2/3 and CSF-1R, in FGFR-dependent and macrophage-dominant cancer models” (Journal of Experimental & Clinical Cancer Research : CR, 2019).
Like-named read-outs stand apart in the source and are kept apart here.

Legend:
BrSK2(h) = target: T1, BrSK2(h) (Homo sapiens, UniProt Q8IWQ3); assay: Eurofins kinase panel; assay type: biochemical; conditions: read-out: Inhibition rate (%)
T1 construct: purchased Eurofins (KinaseProfiler)
T1 sequence (Q8IWQ3 1-736): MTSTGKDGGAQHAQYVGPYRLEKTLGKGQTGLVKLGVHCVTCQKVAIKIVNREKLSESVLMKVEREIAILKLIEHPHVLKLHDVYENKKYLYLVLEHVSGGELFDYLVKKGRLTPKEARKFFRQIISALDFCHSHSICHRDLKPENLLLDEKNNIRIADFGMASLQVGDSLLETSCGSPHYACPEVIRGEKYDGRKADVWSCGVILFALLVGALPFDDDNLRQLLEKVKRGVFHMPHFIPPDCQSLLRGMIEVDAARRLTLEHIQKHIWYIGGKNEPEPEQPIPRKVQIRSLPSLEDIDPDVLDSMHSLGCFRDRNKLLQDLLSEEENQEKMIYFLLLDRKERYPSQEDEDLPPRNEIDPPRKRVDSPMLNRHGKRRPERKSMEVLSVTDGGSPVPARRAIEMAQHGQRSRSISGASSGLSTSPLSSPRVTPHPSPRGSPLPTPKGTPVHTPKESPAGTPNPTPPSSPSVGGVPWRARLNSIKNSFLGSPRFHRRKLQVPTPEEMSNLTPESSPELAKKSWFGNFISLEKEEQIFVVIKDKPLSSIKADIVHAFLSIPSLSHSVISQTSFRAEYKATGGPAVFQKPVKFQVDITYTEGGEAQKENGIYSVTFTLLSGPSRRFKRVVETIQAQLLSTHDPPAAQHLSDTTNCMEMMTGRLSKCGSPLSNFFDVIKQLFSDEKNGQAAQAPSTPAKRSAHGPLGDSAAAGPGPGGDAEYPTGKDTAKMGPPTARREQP

ErbB4(h) = target: T2, ErbB4(h) (Homo sapiens, UniProt Q15303); assay: Eurofins kinase panel; assay type: biochemical; conditions: read-out: Inhibition rate (%)
T2 construct: purchased Eurofins (KinaseProfiler)
T2 sequence (Q15303 26-1308): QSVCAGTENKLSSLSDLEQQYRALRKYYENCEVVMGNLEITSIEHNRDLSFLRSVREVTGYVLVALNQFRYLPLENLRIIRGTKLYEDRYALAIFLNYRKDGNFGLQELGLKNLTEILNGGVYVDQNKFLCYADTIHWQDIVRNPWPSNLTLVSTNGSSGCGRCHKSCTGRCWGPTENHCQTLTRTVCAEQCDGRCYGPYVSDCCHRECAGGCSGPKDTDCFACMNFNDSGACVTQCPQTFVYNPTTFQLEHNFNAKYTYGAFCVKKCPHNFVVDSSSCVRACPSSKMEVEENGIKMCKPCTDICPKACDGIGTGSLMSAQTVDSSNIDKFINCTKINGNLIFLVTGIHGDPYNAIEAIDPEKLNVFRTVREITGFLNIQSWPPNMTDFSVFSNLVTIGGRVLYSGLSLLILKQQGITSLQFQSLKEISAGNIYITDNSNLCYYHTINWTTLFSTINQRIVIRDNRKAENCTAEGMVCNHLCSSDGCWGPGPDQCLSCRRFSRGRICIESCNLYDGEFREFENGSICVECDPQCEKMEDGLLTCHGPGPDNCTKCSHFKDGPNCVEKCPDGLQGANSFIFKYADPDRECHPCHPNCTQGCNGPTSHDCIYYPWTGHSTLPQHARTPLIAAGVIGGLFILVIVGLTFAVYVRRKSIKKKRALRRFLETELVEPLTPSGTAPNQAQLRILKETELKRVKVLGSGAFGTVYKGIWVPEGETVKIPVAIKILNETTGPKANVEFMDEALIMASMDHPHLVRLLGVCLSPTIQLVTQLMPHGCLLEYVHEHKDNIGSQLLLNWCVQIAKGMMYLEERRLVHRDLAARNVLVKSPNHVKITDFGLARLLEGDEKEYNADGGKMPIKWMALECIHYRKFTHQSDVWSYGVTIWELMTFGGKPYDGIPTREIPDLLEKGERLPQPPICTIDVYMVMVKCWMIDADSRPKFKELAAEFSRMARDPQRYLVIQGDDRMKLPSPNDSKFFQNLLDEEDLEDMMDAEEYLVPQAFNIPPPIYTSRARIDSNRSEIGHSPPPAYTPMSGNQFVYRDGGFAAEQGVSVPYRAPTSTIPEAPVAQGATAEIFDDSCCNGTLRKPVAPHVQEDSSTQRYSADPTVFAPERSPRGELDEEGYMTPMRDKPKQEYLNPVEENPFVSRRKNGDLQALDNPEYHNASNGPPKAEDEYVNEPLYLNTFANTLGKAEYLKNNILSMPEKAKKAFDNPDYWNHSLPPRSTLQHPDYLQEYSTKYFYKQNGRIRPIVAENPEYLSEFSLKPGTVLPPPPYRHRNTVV

[1] = test system: 20 additional tumor cell lines with low expression or activation of FGFR and CSF-1R; assay: Cell proliferation assay, non-dependent panel; assay type: cell-based; conditions: 20 cell lines
Protocol: (§1) The cancer cell lines indicated in Figure 3 were seeded in 96-well plates at a low density in growth medium. The next day, appropriate controls or the designated concentrations of the compounds were added to each well, and the cells were incubated for 72 h. HUVECs (passage 3) were seeded in 96-well plates in growth medium overnight and transferred to serum-free medium for 24 h. The following day, appropriate controls or the designated concentrations of the compounds were added to each well, and 100 ng/mL growth factor (bFGF or VEGF) was added to the indicated wells. The cells were incubated for 48 h. Finally, cell proliferation was determined using a sulforhodamine B (SRB) assay or a cell counting kit-8 (CCK-8) assay. […] IC50 values for proliferation curves were calculated using a 4-parameter logistic nonlinear regression model with SoftMax Pro Software (Molecular Devices, San Jose, USA).

CSF-1R = CSF-1R (Homo sapiens, UniProt P07333); assay: Z'-LYTE kinase assay; assay type: biochemical; conditions: mean ± SD
CDK18/cyclinY(h) = target: T3, CDK18/cyclinY(h) (Homo sapiens, UniProt Q07002); assay: Eurofins kinase panel; assay type: biochemical; conditions: read-out: Inhibition rate (%)
T3 construct: purchased Eurofins (KinaseProfiler)
T3 sequence (Q07002 whole entry): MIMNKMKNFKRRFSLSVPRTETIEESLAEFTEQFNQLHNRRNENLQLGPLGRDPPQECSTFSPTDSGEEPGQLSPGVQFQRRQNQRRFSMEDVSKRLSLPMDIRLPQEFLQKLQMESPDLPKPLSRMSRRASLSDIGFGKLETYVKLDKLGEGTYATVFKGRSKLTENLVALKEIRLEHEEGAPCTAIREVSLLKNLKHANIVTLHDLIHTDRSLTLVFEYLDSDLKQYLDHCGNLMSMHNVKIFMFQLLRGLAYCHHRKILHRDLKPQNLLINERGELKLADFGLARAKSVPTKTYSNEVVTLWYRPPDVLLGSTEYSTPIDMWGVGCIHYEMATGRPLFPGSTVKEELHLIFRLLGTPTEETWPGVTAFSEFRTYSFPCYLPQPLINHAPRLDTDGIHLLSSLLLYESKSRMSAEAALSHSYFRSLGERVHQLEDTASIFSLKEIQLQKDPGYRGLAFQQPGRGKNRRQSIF
T3 sequence (Q8ND76 whole entry partner): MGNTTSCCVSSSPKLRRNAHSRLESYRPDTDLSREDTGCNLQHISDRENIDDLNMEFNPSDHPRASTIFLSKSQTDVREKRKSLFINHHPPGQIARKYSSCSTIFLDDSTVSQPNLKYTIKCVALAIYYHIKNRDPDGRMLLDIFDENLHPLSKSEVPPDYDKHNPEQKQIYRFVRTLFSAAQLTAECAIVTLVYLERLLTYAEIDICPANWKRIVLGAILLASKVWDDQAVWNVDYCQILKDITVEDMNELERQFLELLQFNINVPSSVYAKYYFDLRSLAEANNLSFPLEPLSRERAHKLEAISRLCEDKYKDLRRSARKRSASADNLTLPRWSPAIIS

ZIPK(h) = target: T4, ZIPK(h) (Homo sapiens, UniProt O43293); assay: Eurofins kinase panel; assay type: biochemical; conditions: read-out: Inhibition rate (%)
T4 construct: purchased Eurofins (KinaseProfiler)
T4 sequence (O43293 whole entry): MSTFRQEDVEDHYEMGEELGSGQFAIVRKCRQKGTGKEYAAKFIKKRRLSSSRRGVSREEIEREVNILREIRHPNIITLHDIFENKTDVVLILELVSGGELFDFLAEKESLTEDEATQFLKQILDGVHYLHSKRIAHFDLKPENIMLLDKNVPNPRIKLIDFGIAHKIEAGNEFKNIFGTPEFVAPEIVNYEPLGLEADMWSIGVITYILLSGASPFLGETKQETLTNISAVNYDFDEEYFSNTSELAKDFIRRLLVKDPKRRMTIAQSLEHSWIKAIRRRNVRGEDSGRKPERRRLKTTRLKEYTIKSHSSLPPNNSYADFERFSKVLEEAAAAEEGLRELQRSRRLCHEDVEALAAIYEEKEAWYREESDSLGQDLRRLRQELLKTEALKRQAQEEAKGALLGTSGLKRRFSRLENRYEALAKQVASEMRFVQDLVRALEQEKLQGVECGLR

CK1γ1(h) = target: T5, CK1γ1(h) (Homo sapiens, UniProt Q9HCP0); assay: Eurofins kinase panel; assay type: biochemical; conditions: read-out: Inhibition rate (%)
T5 construct: purchased Eurofins (KinaseProfiler)
T5 sequence (Q9HCP0 whole entry): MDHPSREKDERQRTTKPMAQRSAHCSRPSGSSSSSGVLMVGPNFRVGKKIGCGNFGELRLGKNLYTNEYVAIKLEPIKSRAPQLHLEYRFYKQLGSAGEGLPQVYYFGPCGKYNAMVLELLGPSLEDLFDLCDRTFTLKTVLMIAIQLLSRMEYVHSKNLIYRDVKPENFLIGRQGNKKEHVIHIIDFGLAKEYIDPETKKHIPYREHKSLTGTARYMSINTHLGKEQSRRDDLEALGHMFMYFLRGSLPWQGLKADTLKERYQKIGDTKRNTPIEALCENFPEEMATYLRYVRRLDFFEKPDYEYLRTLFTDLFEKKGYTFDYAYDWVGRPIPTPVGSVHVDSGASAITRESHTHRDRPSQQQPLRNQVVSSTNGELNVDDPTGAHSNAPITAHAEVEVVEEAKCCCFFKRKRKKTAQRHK

Snk(h) = target: T6, Snk(h) (Homo sapiens, UniProt Q9NYY3); assay: Eurofins kinase panel; assay type: biochemical; conditions: read-out: Inhibition rate (%)
T6 construct: purchased Eurofins (KinaseProfiler)

FGFR4 = target: T7, FGFR4 (Homo sapiens, UniProt P22455); assay: Kinase inhibition assay (ELISA); assay type: biochemical; conditions: mean ± SD
T7 construct: purchased Eurofins (Fremont, United States)

RIPK2(h) = target: T8, RIPK2(h) (Homo sapiens, UniProt O43353); assay: Eurofins kinase panel; assay type: biochemical; conditions: read-out: Inhibition rate (%)
T8 construct: purchased Eurofins (KinaseProfiler)
T8 sequence (O43353 whole entry): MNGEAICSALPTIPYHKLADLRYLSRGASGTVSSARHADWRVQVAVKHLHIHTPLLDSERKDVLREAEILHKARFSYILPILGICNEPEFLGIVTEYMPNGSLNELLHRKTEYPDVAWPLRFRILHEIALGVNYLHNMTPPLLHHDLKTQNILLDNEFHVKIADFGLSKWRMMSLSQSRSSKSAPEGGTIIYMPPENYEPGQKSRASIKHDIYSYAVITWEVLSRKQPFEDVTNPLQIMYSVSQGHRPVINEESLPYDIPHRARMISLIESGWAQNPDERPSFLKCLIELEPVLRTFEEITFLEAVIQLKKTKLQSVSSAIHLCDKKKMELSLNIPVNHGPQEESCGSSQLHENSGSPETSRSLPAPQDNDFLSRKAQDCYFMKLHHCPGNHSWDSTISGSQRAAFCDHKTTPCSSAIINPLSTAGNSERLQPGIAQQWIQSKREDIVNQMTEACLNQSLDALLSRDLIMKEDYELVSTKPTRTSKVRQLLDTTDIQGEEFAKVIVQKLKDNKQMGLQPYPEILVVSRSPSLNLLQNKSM

MAPKAP-K2(h) = target: T9, MAPKAP-K2(h) (Homo sapiens, UniProt P49137); assay: Eurofins kinase panel; assay type: biochemical; conditions: read-out: Inhibition rate (%)
T9 construct: purchased Eurofins (KinaseProfiler)
T9 sequence (P49137 whole entry): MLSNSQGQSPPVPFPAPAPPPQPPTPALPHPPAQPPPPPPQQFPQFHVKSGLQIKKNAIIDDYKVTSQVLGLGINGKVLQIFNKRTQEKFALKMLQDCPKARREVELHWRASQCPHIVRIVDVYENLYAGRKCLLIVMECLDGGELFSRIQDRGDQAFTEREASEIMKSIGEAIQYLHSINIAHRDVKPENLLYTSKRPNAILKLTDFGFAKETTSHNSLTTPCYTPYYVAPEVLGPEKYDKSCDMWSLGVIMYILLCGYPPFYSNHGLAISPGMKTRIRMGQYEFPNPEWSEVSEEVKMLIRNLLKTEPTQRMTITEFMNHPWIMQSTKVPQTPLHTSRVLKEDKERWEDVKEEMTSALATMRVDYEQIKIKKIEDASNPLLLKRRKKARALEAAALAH

PKBα(h) = target: T10, PKBα(h) (Homo sapiens, UniProt P31749); assay: Eurofins kinase panel; assay type: biochemical; conditions: read-out: Inhibition rate (%)
T10 construct: purchased Eurofins (KinaseProfiler)

[2] = test system: 11 FGFR- or CSF-1R-dependent cancer cell lines; assay: Cell proliferation assay, sensitive panel; assay type: cell-based
Protocol: as §1

Plk3(h) = target: T11, Plk3(h) (Homo sapiens, UniProt Q9H4B4); assay: Eurofins kinase panel; assay type: biochemical; conditions: read-out: Inhibition rate (%)
T11 construct: purchased Eurofins (KinaseProfiler)

cKit(h) = target: T12, cKit(h) (Homo sapiens, UniProt P10721); assay: Eurofins kinase panel; assay type: biochemical; conditions: read-out: Inhibition rate (%)
T12 construct: purchased Eurofins (KinaseProfiler)
T12 sequence (P10721 26-976): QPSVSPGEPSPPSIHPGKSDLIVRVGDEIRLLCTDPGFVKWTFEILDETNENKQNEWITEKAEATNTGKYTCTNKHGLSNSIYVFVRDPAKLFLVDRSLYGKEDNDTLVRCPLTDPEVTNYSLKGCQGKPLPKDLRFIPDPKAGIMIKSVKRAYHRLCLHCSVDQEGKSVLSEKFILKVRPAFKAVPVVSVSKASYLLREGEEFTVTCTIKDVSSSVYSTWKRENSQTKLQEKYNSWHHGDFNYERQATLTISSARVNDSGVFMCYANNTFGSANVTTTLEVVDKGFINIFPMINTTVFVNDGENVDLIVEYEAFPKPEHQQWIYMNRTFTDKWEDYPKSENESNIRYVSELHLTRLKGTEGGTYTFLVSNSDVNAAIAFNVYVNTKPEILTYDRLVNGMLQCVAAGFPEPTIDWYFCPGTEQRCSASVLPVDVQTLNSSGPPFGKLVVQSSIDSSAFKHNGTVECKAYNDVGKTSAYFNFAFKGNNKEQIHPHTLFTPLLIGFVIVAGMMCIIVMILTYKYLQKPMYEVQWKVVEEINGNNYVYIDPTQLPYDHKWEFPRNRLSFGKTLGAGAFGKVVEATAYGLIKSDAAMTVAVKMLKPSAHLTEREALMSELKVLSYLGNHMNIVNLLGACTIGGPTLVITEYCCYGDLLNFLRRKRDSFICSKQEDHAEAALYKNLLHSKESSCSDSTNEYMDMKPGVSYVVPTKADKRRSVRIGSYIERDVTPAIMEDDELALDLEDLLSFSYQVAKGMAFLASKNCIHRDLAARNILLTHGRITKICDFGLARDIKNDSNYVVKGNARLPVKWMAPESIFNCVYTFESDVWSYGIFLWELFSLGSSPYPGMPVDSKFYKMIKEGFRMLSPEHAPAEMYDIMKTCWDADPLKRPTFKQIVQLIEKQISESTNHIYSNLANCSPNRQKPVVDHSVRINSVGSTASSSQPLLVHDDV

SMILES: COc1cc(OC)c(Cl)c(-c2ccc3c(NC(=O)c4ccc(N5CCNC(C)(C)C5)cc4)n[nH]c3n2)c1Cl [3D185]
- inhibition at 0.01 µM (BrSK2(h); 10 nM): 8%
- inhibition at 0.1 µM (BrSK2(h); 100 nM): 5%
- inhibition at 1 µM (BrSK2(h); 1000 nM): 11%
- inhibition at 0.01 µM (ErbB4(h); 10 nM): -2%
- inhibition at 0.1 µM (ErbB4(h); 100 nM): -1%
- inhibition at 1 µM (ErbB4(h); 1000 nM): 28%
- IC50 [1]: > 1 µM
- IC50 (CSF-1R): 0.0038 µM
- inhibition at 0.01 µM (CDK18/cyclinY(h); 10 nM): 10%
- inhibition at 0.1 µM (CDK18/cyclinY(h); 100 nM): 12%
- inhibition at 1 µM (CDK18/cyclinY(h); 1000 nM): 15%
- inhibition at 0.01 µM (ZIPK(h); 10 nM): -3%
- inhibition at 0.1 µM (ZIPK(h); 100 nM): 0%
- inhibition at 1 µM (ZIPK(h); 1000 nM): 2%
- inhibition at 0.01 µM (CK1γ1(h); 10 nM): 9%
- inhibition at 0.1 µM (CK1γ1(h); 100 nM): -4%
- inhibition at 1 µM (CK1γ1(h); 1000 nM): 2%
- inhibition at 0.01 µM (Snk(h); 10 nM): 0%
- inhibition at 0.1 µM (Snk(h); 100 nM): -2%
- inhibition at 1 µM (Snk(h); 1000 nM): 10%
- IC50 (FGFR4): 0.0514 µM
- inhibition at 0.01 µM (RIPK2(h); 10 nM): 2%
- inhibition at 0.1 µM (RIPK2(h); 100 nM): 6%
- inhibition at 1 µM (RIPK2(h); 1000 nM): 3%
- inhibition at 0.01 µM (MAPKAP-K2(h); 10 nM): 0%
- inhibition at 0.1 µM (MAPKAP-K2(h); 100 nM): 10%
- inhibition at 1 µM (MAPKAP-K2(h); 1000 nM): 0%
- inhibition at 0.01 µM (PKBα(h); 10 nM): -6%
- inhibition at 0.1 µM (PKBα(h); 100 nM): -8%
- inhibition at 1 µM (PKBα(h); 1000 nM): -7%
- IC50 ([2]; FGFR1-, FGFR2-, FGFR3- and CSF-1R-mediated proliferation, read-out: IC50 values, range over cell lines): 0.0009 to 0.0368 µM
- IC50 ([2]; mean over CSF-1R dependent and FGFRs dependent lines, read-out: Mean IC50): 0.0173 µM
- inhibition at 0.01 µM (Plk3(h); 10 nM): 5%
- inhibition at 0.1 µM (Plk3(h); 100 nM): 1%
- inhibition at 1 µM (Plk3(h); 1000 nM): 6%
- inhibition at 0.01 µM (cKit(h); 10 nM): 19%
- inhibition at 0.1 µM (cKit(h); 100 nM): 35%
- inhibition at 1 µM (cKit(h); 1000 nM): 76%
